± gives the expanded uncertainty stated by the source.
Assays:
[1] = refractive index (Na D-line) (dimensionless); settings: 81.5 kPa, Liquid, Standard Abbe refractometry
[2] = 81.5 kPa, Liquid, Vibrating tube method
[3] = refractive index (Na D-line) (dimensionless); xn = mol fraction of the nth substance listed; settings: 81.5 kPa, Liquid, Standard Abbe refractometry
[4] = xn = mol fraction of the nth substance listed; settings: 81.5 kPa, Liquid, Vibrating tube method

ClCCCl [1,2-dichloroethane]
Settings	mass density, 293.15 K [kg/m3]	mass density, 303.15 K [kg/m3]	mass density, 313.15 K [kg/m3]	mass density, 323.15 K [kg/m3]	mass density, 333.15 K [kg/m3]	refractive index, 293.15 K	refractive index, 303.15 K	refractive index, 313.15 K	refractive index, 323.15 K	refractive index, 333.15 K
[1]	–	–	–	–	–	1.44472 ± 0.01	1.43948 ± 0.01	1.43423 ± 0.01	1.42897 ± 0.01	1.42373 ± 0.01
[2]	1252.82 ± 10	1238.27 ± 10	1223.53 ± 10	1208.61 ± 10	1193.61 ± 10	–	–	–	–	–

Brc1ccccc1 [bromobenzene]
Settings	mass density, 293.15 K [kg/m3]	mass density, 303.15 K [kg/m3]	mass density, 313.15 K [kg/m3]	mass density, 323.15 K [kg/m3]	mass density, 333.15 K [kg/m3]	refractive index, 293.15 K	refractive index, 303.15 K	refractive index, 313.15 K	refractive index, 323.15 K	refractive index, 333.15 K
[1]	–	–	–	–	–	1.55981 ± 0.01	1.55442 ± 0.01	1.5489 ± 0.01	1.54319 ± 0.01	1.53742 ± 0.01
[2]	1495.52 ± 10	1481.97 ± 10	1468.41 ± 10	1454.85 ± 10	1441.22 ± 10	–	–	–	–	–

c1ccccc1 [benzene] + ClCCCl
x2 = 0
Settings	mass density, 293.15 K [kg/m3]	mass density, 303.15 K [kg/m3]	mass density, 313.15 K [kg/m3]	mass density, 323.15 K [kg/m3]	mass density, 333.15 K [kg/m3]	refractive index, 293.15 K	refractive index, 303.15 K	refractive index, 313.15 K	refractive index, 323.15 K	refractive index, 333.15 K
[3]	–	–	–	–	–	1.50118 ± 0.01	1.49517 ± 0.01	1.4885 ± 0.01	1.48264 ± 0.01	1.47638 ± 0.01
[4]	878.87 ± 10	868.2 ± 10	857.44 ± 10	846.62 ± 10	835.71 ± 10	–	–	–	–	–

ClCCCl [1,2-dichloroethane] + Clc1ccccc1
x1 = 1
Settings	mass density, 293.15 K [kg/m3]	mass density, 303.15 K [kg/m3]	mass density, 313.15 K [kg/m3]	mass density, 323.15 K [kg/m3]	mass density, 333.15 K [kg/m3]	refractive index, 293.15 K	refractive index, 303.15 K	refractive index, 313.15 K	refractive index, 323.15 K	refractive index, 333.15 K
[3]	–	–	–	–	–	1.44472 ± 0.01	1.43948 ± 0.01	1.43423 ± 0.01	1.42897 ± 0.01	1.42373 ± 0.01
[4]	1252.82 ± 10	1238.27 ± 10	1223.53 ± 10	1208.61 ± 10	1193.61 ± 10	–	–	–	–	–

ClCCCl [1,2-dichloroethane] + Brc1ccccc1
x1 = 1
Settings	mass density, 293.15 K [kg/m3]	mass density, 303.15 K [kg/m3]	mass density, 313.15 K [kg/m3]	mass density, 323.15 K [kg/m3]	mass density, 333.15 K [kg/m3]	refractive index, 293.15 K	refractive index, 303.15 K	refractive index, 313.15 K	refractive index, 323.15 K	refractive index, 333.15 K
[3]	–	–	–	–	–	1.44472 ± 0.01	1.43948 ± 0.01	1.43423 ± 0.01	1.42897 ± 0.01	1.42373 ± 0.01
[4]	1252.82 ± 10	1238.27 ± 10	1223.53 ± 10	1208.61 ± 10	1193.61 ± 10	–	–	–	–	–

ClCCCl [1,2-dichloroethane] + O=[N+]([O-])c1ccccc1
x1 = 1
Settings	mass density, 293.15 K [kg/m3]	mass density, 303.15 K [kg/m3]	mass density, 313.15 K [kg/m3]	mass density, 323.15 K [kg/m3]	mass density, 333.15 K [kg/m3]	refractive index, 293.15 K	refractive index, 303.15 K	refractive index, 313.15 K	refractive index, 323.15 K	refractive index, 333.15 K
[3]	–	–	–	–	–	1.44472 ± 0.01	1.43948 ± 0.01	1.43423 ± 0.01	1.42897 ± 0.01	1.42373 ± 0.01
[4]	1252.82 ± 10	1238.27 ± 10	1223.53 ± 10	1208.61 ± 10	1193.61 ± 10	–	–	–	–	–

c1ccccc1 [benzene]
Settings	mass density, 293.15 K [kg/m3]	mass density, 303.15 K [kg/m3]	mass density, 313.15 K [kg/m3]	mass density, 323.15 K [kg/m3]	mass density, 333.15 K [kg/m3]	refractive index, 293.15 K	refractive index, 303.15 K	refractive index, 313.15 K	refractive index, 323.15 K	refractive index, 333.15 K
[1]	–	–	–	–	–	1.50118 ± 0.01	1.49517 ± 0.01	1.4885 ± 0.01	1.48264 ± 0.01	1.47638 ± 0.01
[2]	878.87 ± 10	868.2 ± 10	857.44 ± 10	846.62 ± 10	835.71 ± 10	–	–	–	–	–

Clc1ccccc1 [chlorobenzene]
Settings	mass density, 293.15 K [kg/m3]	mass density, 303.15 K [kg/m3]	mass density, 313.15 K [kg/m3]	mass density, 323.15 K [kg/m3]	mass density, 333.15 K [kg/m3]	refractive index, 293.15 K	refractive index, 303.15 K	refractive index, 313.15 K	refractive index, 323.15 K	refractive index, 333.15 K
[1]	–	–	–	–	–	1.52455 ± 0.01	1.51902 ± 0.01	1.51346 ± 0.01	1.50781 ± 0.01	1.50223 ± 0.01
[2]	1106.49 ± 10	1095.71 ± 10	1084.86 ± 10	1073.96 ± 10	1063.01 ± 10	–	–	–	–	–

O=[N+]([O-])c1ccccc1 [nitrobenzene]
Settings	mass density, 293.15 K [kg/m3]	mass density, 303.15 K [kg/m3]	mass density, 313.15 K [kg/m3]	mass density, 323.15 K [kg/m3]	mass density, 333.15 K [kg/m3]	refractive index, 293.15 K	refractive index, 303.15 K	refractive index, 313.15 K	refractive index, 323.15 K	refractive index, 333.15 K
[1]	–	–	–	–	–	1.55241 ± 0.01	1.54763 ± 0.01	1.54288 ± 0.01	1.53795 ± 0.01	1.53289 ± 0.01
[2]	1203.05 ± 10	1193.15 ± 10	1183.21 ± 10	1173.27 ± 10	1163.32 ± 10	–	–	–	–	–

Reference: the NIST ThermoML archive (doi:10.1016/j.jct.2015.12.027)
